In ChEMBL document CHEMBL4052776, “Discovery of 3-morpholino-imidazole[1,5-a]pyrazine BTK inhibitors for rheumatoid arthritis” (Bioorg Med Chem Lett, 2017):

Columns and labels:
Homo sapiens [1] = species on record: Homo sapiens; experiment: Selectivity ratio of IC50 for CSK (unknown origin) to IC50 for BTK (unknown origin)
[2] = molecular target: Tyrosine-protein kinase FRK (Homo sapiens, UniProt P42685); experiment: Inhibition of FRK (unknown origin)
[3] = Total clearance in rat plasma at 10 mg/kg; assay type: ADME, organism-based
Homo sapiens [4] = species on record: Homo sapiens; experiment: Selectivity ratio of IC50 for BMX (unknown origin) to IC50 for BTK (unknown origin)
[5] = molecular target: T1, Tyrosine-protein kinase Tec (Homo sapiens, UniProt P42680); experiment: Inhibition of TEC (unknown origin)
T1 sequence (P42680 whole entry): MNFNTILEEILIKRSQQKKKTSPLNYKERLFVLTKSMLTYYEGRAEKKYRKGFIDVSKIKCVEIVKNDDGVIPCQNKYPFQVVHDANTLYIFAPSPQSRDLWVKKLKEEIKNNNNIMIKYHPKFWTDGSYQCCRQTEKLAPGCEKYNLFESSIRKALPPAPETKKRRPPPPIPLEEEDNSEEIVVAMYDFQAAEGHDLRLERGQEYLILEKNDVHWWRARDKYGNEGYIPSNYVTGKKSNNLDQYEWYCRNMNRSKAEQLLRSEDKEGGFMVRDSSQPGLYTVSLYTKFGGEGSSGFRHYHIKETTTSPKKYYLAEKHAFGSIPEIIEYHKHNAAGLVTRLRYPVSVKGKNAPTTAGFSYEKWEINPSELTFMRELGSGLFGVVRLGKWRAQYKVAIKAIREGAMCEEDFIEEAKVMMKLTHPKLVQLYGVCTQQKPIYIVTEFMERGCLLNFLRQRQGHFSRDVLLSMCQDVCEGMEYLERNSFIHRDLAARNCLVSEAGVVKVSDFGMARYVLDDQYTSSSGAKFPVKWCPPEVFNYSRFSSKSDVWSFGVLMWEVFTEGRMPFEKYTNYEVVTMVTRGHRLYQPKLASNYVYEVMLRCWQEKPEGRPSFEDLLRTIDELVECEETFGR

[6] = molecular target: Tyrosine-protein kinase Lck (Homo sapiens, UniProt P06239); experiment: Inhibition of LCK (unknown origin)
[7] = Oral bioavailability in rat at 10 mg/kg; assay type: ADME, organism-based; settings: in vivo
[8] = Half life in dog at 2 mg/kg administered as cassette dose; assay type: ADME, organism-based, Canis lupus familiaris; settings: in vivo
Homo sapiens [9] = species on record: Homo sapiens; experiment: Selectivity ratio of IC50 for YES1 (unknown origin) to IC50 for BTK (unknown origin)
Homo sapiens [10] = species on record: Homo sapiens; experiment: Selectivity ratio of IC50 for BLK (unknown origin) to IC50 for BTK (unknown origin)
[11] = Half life in rat at 10 mg/kg; assay type: ADME, organism-based; settings: in vivo
Homo sapiens [12] = species on record: Homo sapiens; experiment: Selectivity ratio of IC50 for SRC (unknown origin) to IC50 for BTK (unknown origin)
[13] = molecular target: Tyrosine-protein kinase Srms (Homo sapiens, UniProt Q9H3Y6); experiment: Inhibition of SRMS (unknown origin)
[14] = molecular target: Tyrosine-protein kinase CSK (Homo sapiens, UniProt P41240); experiment: Inhibition of CSK (unknown origin)
Homo sapiens [15] = species on record: Homo sapiens; experiment: Selectivity ratio of IC50 for ERBB4 (unknown origin) to IC50 for BTK (unknown origin)
[16] = molecular target: Tyrosine-protein kinase Yes (Homo sapiens, UniProt P07947); experiment: Inhibition of YES1 (unknown origin)
[17] = molecular target: T2, Tyrosine-protein kinase TXK (Homo sapiens, UniProt P42681); experiment: Inhibition of TXK (unknown origin)
T2 sequence (P42681 whole entry): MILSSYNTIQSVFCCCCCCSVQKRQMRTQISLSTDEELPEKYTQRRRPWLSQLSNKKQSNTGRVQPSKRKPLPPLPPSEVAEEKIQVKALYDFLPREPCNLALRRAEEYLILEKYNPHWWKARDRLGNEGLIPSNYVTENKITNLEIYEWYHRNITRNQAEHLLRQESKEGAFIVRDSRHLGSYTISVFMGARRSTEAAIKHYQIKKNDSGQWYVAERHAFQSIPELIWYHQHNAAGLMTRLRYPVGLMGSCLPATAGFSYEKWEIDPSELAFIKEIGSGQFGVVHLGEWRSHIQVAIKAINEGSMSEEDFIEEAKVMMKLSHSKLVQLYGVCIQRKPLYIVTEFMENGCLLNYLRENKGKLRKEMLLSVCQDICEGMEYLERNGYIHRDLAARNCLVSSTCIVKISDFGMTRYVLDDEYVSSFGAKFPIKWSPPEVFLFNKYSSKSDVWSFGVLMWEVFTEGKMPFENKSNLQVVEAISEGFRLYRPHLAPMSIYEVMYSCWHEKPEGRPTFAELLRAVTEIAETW

[18] = molecular target: Tyrosine-protein kinase Fgr (Homo sapiens, UniProt P09769); experiment: Inhibition of FGR (unknown origin)
[19] = molecular target: Proto-oncogene tyrosine-protein kinase Src (Homo sapiens, UniProt P12931); experiment: Inhibition of SRC (unknown origin)
Homo sapiens [20] = species on record: Homo sapiens; experiment: Selectivity ratio of IC50 for TXK (unknown origin) to IC50 for BTK (unknown origin)
[21] = molecular target: T3, Tyrosine-protein kinase BTK (Homo sapiens, UniProt Q06187); experiment: Inhibition of BTK in human PBMC assessed as reduction in anti-IgM-induced MIP1beta
[22] = molecular target: Tyrosine-protein kinase Fyn (Homo sapiens, UniProt P06241); experiment: Inhibition of FYN (unknown origin)
[23] = molecular target: Voltage-gated inwardly rectifying potassium channel KCNH2 (Homo sapiens, UniProt Q12809); experiment: Inhibition of human ERG by [35S]-MK499 displacement or iKr channel assay
Homo sapiens [24] = species on record: Homo sapiens; experiment: Selectivity ratio of IC50 for FYN (unknown origin) to IC50 for BTK (unknown origin)
Homo sapiens [25] = species on record: Homo sapiens; experiment: Selectivity ratio of IC50 for TEC (unknown origin) to IC50 for BTK (unknown origin)
[26] = molecular target: Protein-tyrosine kinase 6 (Homo sapiens, UniProt Q13882); experiment: Inhibition of PTK6 (unknown origin)
[27] = molecular target: Tyrosine-protein kinase Lyn (Homo sapiens, UniProt P07948); experiment: Inhibition of LYNB (unknown origin)
[28] = molecular target: Receptor tyrosine-protein kinase erbB-4 (Homo sapiens, UniProt Q15303); experiment: Inhibition of ERBB4 (unknown origin)
Homo sapiens [29] = species on record: Homo sapiens; experiment: Selectivity ratio of IC50 for FRK (unknown origin) to IC50 for BTK (unknown origin)
[30] = molecular target: Tyrosine-protein kinase Blk (Homo sapiens, UniProt P51451); experiment: Inhibition of BLK (unknown origin)
Homo sapiens [31] = species on record: Homo sapiens; experiment: Selectivity ratio of IC50 for LYNB (unknown origin) to IC50 for BTK (unknown origin)
Homo sapiens [32] = species on record: Homo sapiens; experiment: Selectivity ratio of IC50 for FGR (unknown origin) to IC50 for BTK (unknown origin)
Homo sapiens [33] = species on record: Homo sapiens; experiment: Selectivity ratio of IC50 for PTK6 (unknown origin) to IC50 for BTK (unknown origin)
[34] = molecular target: T4, Cytoplasmic tyrosine-protein kinase BMX (Homo sapiens, UniProt P51813); experiment: Inhibition of BMX (unknown origin)
T4 sequence (P51813 whole entry): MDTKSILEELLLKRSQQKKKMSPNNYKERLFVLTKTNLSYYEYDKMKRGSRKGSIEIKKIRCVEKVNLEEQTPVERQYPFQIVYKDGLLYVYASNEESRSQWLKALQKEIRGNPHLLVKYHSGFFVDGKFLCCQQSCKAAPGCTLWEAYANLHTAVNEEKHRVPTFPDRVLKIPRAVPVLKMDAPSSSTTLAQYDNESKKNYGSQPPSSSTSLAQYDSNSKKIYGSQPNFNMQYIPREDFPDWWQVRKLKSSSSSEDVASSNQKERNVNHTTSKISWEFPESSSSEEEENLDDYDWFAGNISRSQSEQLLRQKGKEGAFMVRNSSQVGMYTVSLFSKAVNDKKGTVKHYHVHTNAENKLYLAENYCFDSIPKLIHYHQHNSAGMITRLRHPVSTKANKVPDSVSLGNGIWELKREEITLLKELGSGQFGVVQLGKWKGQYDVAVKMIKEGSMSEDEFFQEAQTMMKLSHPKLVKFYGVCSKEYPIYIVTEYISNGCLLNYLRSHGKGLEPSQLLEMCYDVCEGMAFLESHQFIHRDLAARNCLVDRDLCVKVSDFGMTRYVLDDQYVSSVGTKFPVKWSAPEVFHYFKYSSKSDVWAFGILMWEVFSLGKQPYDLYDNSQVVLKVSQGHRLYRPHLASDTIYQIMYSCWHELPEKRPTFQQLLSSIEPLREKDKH

[35] = Total clearance in dog plasma at 2 mg/kg administered as cassette dose; assay type: ADME, organism-based, Canis lupus familiaris
[36] = molecular target: T3, Tyrosine-protein kinase BTK; experiment: Inhibition of recombinant full-length His6-tagged BTK (unknown origin) expressed in baculovirus infected Sf9 cells using biotinylated A5 peptide as substrate preincubated for 60 mins followed by substrate addition measured after 120 mins by LANCE TR-FRET assay
Homo sapiens [37] = species on record: Homo sapiens; experiment: Selectivity ratio of IC50 for LCK (unknown origin) to IC50 for BTK (unknown origin)
Homo sapiens [38] = species on record: Homo sapiens; experiment: Selectivity ratio of IC50 for SRMS (unknown origin) to IC50 for BTK (unknown origin)

T3 sequence (Q06187 whole entry): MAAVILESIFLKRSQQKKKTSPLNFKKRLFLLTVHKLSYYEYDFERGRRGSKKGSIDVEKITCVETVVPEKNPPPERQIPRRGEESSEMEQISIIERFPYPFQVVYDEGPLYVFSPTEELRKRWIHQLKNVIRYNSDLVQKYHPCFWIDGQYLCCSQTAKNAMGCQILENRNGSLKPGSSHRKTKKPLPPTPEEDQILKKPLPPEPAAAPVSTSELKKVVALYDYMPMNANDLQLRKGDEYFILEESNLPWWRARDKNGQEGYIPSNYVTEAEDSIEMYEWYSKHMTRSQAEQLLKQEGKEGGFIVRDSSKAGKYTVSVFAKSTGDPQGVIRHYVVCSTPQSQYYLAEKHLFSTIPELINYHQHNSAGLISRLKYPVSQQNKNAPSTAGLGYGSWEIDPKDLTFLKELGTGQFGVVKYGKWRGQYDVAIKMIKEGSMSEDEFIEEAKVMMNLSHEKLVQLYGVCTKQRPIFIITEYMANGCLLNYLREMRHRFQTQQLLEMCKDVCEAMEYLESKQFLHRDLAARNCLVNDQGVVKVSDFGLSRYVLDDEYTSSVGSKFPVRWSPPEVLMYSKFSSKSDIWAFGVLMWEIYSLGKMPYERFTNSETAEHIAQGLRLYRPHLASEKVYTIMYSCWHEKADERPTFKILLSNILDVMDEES
Tyrosine-protein kinase Lck, sequence (P06239 whole entry): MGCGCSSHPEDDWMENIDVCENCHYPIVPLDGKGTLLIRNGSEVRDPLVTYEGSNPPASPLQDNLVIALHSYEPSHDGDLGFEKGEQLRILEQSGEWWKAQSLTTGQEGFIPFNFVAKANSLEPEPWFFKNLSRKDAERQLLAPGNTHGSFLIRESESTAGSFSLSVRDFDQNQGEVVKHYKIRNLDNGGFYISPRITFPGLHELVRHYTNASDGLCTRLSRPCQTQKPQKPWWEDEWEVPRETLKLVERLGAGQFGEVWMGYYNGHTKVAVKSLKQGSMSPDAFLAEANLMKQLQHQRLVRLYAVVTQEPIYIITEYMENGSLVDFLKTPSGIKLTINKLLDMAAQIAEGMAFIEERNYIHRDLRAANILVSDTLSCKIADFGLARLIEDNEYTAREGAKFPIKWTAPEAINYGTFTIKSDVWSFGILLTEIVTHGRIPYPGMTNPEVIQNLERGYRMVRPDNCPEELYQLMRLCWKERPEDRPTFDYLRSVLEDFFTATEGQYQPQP
Tyrosine-protein kinase Fgr, sequence (P09769 whole entry): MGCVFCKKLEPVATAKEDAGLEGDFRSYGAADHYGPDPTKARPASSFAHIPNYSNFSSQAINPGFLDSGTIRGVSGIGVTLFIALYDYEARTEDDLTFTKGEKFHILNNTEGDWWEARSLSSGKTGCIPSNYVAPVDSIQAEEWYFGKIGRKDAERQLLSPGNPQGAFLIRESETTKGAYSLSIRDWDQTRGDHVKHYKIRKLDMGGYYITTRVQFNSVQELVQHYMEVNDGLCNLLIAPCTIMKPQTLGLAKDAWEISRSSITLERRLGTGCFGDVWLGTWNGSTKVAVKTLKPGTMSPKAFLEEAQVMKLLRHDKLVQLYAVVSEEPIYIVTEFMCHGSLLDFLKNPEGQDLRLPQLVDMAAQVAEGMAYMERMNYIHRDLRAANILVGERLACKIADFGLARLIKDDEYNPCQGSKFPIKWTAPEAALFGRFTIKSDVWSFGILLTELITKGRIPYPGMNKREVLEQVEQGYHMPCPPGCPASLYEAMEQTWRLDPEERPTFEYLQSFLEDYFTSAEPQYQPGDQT
Tyrosine-protein kinase Yes, sequence (P07947 whole entry): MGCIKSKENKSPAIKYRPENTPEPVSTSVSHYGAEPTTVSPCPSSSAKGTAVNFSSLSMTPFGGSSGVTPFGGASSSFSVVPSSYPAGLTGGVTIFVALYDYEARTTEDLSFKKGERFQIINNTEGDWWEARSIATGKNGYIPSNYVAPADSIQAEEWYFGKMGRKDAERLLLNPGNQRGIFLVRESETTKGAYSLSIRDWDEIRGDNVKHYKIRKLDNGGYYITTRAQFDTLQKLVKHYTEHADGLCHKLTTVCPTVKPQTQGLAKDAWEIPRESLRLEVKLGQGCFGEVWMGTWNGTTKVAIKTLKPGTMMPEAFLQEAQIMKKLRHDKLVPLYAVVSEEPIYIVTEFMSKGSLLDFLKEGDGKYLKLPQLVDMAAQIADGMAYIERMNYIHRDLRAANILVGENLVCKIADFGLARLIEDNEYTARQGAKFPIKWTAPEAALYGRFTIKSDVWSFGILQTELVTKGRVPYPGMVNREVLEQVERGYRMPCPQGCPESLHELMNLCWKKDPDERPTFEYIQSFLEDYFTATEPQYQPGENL
Receptor tyrosine-protein kinase erbB-4, sequence (Q15303 whole entry): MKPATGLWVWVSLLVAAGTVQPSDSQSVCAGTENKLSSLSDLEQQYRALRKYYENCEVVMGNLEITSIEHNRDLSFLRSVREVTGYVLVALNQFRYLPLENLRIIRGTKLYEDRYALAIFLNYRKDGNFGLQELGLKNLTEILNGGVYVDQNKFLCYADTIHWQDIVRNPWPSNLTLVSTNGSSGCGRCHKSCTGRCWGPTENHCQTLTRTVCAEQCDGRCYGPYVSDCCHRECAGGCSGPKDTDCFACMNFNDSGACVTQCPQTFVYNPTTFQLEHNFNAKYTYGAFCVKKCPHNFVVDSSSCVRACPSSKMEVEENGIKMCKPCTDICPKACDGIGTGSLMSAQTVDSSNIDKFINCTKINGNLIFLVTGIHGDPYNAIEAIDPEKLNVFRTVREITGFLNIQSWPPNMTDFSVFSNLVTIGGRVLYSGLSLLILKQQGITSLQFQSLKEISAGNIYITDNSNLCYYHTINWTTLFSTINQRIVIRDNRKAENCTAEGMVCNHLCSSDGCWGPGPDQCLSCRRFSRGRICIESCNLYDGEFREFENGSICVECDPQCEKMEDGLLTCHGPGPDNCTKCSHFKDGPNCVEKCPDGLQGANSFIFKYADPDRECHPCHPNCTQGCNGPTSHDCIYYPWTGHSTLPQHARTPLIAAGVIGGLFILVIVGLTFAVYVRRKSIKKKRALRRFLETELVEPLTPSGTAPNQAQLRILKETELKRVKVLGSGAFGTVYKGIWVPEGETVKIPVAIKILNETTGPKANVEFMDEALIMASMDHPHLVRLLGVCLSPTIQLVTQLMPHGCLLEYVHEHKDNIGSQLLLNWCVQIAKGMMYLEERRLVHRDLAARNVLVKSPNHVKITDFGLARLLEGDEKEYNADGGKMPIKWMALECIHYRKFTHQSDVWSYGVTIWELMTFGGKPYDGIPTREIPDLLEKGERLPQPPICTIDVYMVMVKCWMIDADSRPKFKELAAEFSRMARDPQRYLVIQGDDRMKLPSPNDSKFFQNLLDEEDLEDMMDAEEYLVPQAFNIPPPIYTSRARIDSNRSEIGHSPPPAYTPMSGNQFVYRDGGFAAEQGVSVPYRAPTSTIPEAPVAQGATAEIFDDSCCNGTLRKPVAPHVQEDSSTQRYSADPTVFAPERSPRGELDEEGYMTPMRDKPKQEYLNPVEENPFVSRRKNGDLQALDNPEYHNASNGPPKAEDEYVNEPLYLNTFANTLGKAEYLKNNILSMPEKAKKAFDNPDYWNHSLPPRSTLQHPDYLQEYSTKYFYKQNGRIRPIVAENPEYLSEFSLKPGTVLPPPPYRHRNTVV
Proto-oncogene tyrosine-protein kinase Src, sequence (P12931 2-536 limits assumed): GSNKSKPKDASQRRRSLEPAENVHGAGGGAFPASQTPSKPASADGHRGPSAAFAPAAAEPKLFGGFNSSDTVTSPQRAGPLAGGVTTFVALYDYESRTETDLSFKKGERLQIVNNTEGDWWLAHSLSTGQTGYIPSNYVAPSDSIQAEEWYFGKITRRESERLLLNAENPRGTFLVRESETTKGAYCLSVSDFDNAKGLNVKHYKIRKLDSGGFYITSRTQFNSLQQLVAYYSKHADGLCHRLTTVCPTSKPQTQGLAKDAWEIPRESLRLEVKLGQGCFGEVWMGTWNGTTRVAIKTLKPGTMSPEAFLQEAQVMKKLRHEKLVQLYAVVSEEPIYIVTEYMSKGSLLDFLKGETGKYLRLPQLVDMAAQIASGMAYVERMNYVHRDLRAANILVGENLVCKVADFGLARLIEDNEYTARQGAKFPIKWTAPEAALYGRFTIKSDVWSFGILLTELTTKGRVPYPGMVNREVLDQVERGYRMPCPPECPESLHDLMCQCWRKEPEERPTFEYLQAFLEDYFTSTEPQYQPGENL
Protein-tyrosine kinase 6, sequence (Q13882 whole entry): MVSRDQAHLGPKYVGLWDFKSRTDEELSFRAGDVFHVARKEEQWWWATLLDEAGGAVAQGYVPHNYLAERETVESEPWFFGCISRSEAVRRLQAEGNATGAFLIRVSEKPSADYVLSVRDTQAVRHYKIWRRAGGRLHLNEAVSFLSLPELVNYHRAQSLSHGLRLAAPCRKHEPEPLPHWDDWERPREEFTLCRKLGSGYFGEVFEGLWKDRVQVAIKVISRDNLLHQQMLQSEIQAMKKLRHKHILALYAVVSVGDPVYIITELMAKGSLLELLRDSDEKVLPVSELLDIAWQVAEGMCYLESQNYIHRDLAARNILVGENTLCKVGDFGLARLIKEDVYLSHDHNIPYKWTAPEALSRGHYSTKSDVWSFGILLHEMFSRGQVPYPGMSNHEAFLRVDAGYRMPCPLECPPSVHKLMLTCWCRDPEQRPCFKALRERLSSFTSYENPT
Tyrosine-protein kinase CSK, sequence (P41240 whole entry): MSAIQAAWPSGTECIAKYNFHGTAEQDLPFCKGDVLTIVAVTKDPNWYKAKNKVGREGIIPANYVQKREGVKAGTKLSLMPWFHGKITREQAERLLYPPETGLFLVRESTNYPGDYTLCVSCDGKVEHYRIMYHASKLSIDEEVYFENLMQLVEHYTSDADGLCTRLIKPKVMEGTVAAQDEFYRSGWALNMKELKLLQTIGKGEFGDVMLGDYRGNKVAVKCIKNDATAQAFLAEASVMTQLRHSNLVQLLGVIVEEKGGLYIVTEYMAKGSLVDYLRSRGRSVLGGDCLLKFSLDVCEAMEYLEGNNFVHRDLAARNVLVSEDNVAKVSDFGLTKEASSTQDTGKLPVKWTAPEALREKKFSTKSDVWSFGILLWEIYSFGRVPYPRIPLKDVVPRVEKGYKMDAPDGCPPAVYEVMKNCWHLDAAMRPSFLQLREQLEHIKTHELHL

COCC(=O)N1CCO[C@@H](c2nc(-c3ccc(C(=O)Nc4cc(C(F)(F)F)ccn4)cc3F)c3c(N)nccn23)C1
Ratio IC50 (Homo sapiens [1]): 2230
IC50 [2]: 214 nM
clearance [3]: 8.2 mL/min/kg
Ratio IC50 (Homo sapiens [4]): 895
IC50 [5]: 232 nM
IC50 [6]: 28 nM
bioavailability [7]: 42%
half-life [8]: 2.5 h
Ratio IC50 (Homo sapiens [9]): 198
Ratio IC50 (Homo sapiens [10]): 212
half-life [11]: 0.8 h
Ratio IC50 (Homo sapiens [12]): 333
IC50 [13]: 76 nM
IC50 [14]: 626 nM
Ratio IC50 (Homo sapiens [15]): 457
IC50 [16]: 73 nM
IC50 [17]: 256 nM
IC50 [18]: 69 nM
IC50 [19]: 123 nM
Ratio IC50 (Homo sapiens [20]): 691
IC50 [21]: 14 nM
IC50 [22]: 571 nM
IC50 [23]: 24000 nM
Ratio IC50 (Homo sapiens [24]): 1540
Ratio IC50 (Homo sapiens [25]): 626
IC50 [26]: 77 nM
IC50 [27]: 268 nM
IC50 [28]: 169 nM
Ratio IC50 (Homo sapiens [29]): 578
IC50 [30]: 78 nM
Ratio IC50 (Homo sapiens [31]): 723
Ratio IC50 (Homo sapiens [32]): 187
Ratio IC50 (Homo sapiens [33]): 209
IC50 [34]: 331 nM
clearance [35]: 13.8 mL/min/kg
IC50 [36]: 0.37 to 0.4 nM
Ratio IC50 (Homo sapiens [37]): 75
Ratio IC50 (Homo sapiens [38]): 205
